These results are taken from PMC4076215, “Nickel(II) Complex of Polyhydroxybenzaldehyde N4-Thiosemicarbazone Exhibits Anti-Inflammatory Activity by Inhibiting NF-κB Transactivation” (PLoS ONE, 2014).

Each structure is given as a SMILES string.

The nature of this data set: Renal functional test (serum) after oral dosing. It is filed as in vivo, C57BL/6 mice. The conditions noted are these: after two weeks. As for the experimental part:
Renal functional test. C57BL/6 mice at age 8-12 weeks old were administrated orally with control PBS or
with various concentrations (125 mg/kg, 250 mg/kg and 500 mg/kg) of complex 5. n= 6 (3 male and 3
female mice)/group. After two weeks, sera were collected from the mice for renal functional test.

In the case of `NC1=[S+][Ni-2]2([P+](c3ccccc3)(c3ccccc3)c3ccccc3)[O]c3c(O)cccc3C=[N+]2N1.[Cl-]` [complex 5, {2-[(2-Carbamothiolylhydrazin-1-ylidene-[kappa]2N1,S)methyl]-6-hydroxyphenolato-[kappa]O1}(triphenylphosphine-[kappa]P)nickel(II) chloride], under “125 mg/kg oral”, the “Anion Gap” value is recorded as 24.80 mmol/L, the CO2 is given as 18.18 mmol/L, the Chlorine was 110.80 mmol/L and the Creatinine was under 9 µmol/L. Under “125 mg/kg oral”, this compound displayed a Potassium of 6.68 ± 1.12 mmol/L, a Sodium of 147.00 mmol/L and a Urea of 10.72 mmol/L. Where the note is “250 mg/kg oral”, the “Anion Gap” value was found to be 26.67 mmol/L, the CO2 is recorded as 16.36 mmol/L, the Chlorine is listed as 111.00 mmol/L and the Creatinine is under 9 µmol/L. Under “250 mg/kg oral”, this compound yielded a Potassium of 6.50 ± 0.52 mmol/L, a Sodium of 147.50 mmol/L and a Urea of 9.96 mmol/L. Also, under “500 mg/kg oral”, the “Anion Gap” value worked out at 27.00 mmol/L, the CO2 is recorded as 16.14 mmol/L, the Chlorine was determined as 110.83 mmol/L and the Creatinine is under 9 µmol/L. For the same compound, for the setting “500 mg/kg oral”, the Potassium stood at 5.83 ± 0.74 mmol/L, the Sodium stood at 148.33 mmol/L and the Urea came out at 9.56 mmol/L.
